Test results taken from PMC9103942, “A Tumor-Homing Peptide Platform Enhances Drug Solubility, Improves Blood–Brain Barrier Permeability and Targets Glioblastoma” (Cancers, 2022).

Tests used:
[1] = Serum stability, human serum; format: in vitro ADME; conditions: 25% human serum; for half-life at 70 µM: human, LC-MS, normalized to EIC at t = 0
[2] = Compound solubility in saline vs pure DMSO (LC-MS of supernatant); format: physicochemical; conditions: room temperature 5 min, centrifuged, LC-MS EIC
Description: Dried powder of each compound was first resuspended in pure DMSO to form a 10 mm stock. Each stock was then diluted in saline (0.9% NaCl) to form an aqueous solution of 100 µm (final DMSO 1% (v/v)) or 1.3 mM (final DMSO 10% (v/v)) of each compound. The samples were incubated at room temperature for 5 min, then centrifuged at 10,000 rcf for 10 min to pellet any precipitates. 5 µL of supernatant was diluted into LC-MS vials containing 100 µL of 50:50 water:acetonitrile with 0.1% TFA additive and analyzed by LC-MS. The presence of soluble compound in each supernatant was determined by quantifying the ion count in the extracted ion chromatogram (EIC) using the MassHunter software. Solubility was measured by comparing the total EIC of the sample diluted in saline vs. in pure DMSO. Each sample was measured in duplicates.
To test the solubility of each compound in aqueous solution, a 10 mm stock of each compound in pure DMSO was diluted in saline solution (0.9% sodium chloride in water) to a final concentration of either 100 µm or 1.3 mm. The samples were incubated at room temperature for 5 min and centrifuged to remove any precipitate. The supernatant was analyzed by liquid chromatography–mass spectrometry (LC-MS). To quantify solubility, the extracted ion count from samples diluted in saline was normalized to samples diluted in pure DMSO.

[3] = target: T1, recombinant dg-Bcan protein (Homo sapiens, UniProt Q96GW7); assay: Octet binding kinetic analysis (steady state) to recombinant dg-Bcan; conditions: one site specific binding fit, Octet RED
T1 construct: purchased R&D Systems 4009-BC-050
T1 sequence (Q96GW7 23-911): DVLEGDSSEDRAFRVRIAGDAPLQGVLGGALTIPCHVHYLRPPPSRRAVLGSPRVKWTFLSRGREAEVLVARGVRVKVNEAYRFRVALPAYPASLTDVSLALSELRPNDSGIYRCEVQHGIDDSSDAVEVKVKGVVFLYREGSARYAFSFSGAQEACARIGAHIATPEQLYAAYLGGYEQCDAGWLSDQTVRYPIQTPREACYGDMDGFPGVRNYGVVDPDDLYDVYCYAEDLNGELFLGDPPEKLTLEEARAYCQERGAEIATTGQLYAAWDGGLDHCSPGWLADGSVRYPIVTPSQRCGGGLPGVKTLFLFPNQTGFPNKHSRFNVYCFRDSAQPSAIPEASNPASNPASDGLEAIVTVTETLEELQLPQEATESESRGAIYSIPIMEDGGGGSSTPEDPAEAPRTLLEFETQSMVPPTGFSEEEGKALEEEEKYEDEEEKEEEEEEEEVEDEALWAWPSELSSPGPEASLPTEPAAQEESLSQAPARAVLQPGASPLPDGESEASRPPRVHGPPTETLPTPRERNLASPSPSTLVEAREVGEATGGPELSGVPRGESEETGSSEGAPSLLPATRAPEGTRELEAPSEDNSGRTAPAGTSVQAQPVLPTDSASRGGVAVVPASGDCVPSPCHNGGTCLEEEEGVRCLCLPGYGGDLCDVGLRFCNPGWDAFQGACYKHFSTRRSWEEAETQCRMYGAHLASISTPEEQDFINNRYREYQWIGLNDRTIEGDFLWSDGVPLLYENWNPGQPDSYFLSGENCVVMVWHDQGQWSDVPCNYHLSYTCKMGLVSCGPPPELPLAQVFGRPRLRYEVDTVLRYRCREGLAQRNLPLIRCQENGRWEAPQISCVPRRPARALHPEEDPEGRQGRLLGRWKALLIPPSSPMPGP
Description: Figure 3 Cytotoxicity of BTP-7-CPT. (a) Western blot showing expression of dg-Bcan in patient-derived GBM-X6 cells, as well as in Bcan-overexpressing HEK cells (HEK-Bcan). (b) Binding kinetics analysis (steady-state) of BTP-7-CPT (red) and unmodified CPT (blue) to recombinant dg-Bcan protein using the ForteBio Octet system. Rmax (maximal response in response unit) and KD (dissociation constant) were calculated using a non-linear regression (one site specific binding) fit using the Graphpad Prism software. (c) Luminescent cell viability (CellTiter-Glo) of GBM-X6 cells treated with BTP-7-CPT (nwells = 3) for 72 h. (d) Luminescent cell viability (CellTiter-Glo) of GS401 recurrent GBM cells treated with BTP-7-CPT (nwells = 3) for 72 h. All IC50 values were measured through the non-linear ‘log(inhibitor) vs. response—variable slope (four parameters)’ fit. […] Statistical significance was calculated using a two-way ANOVA, Sidak’s multiple comparisons test (* p < 0.05, *** p < 0.001, **** p < 0.0001). […]
Infrared spectroscopy (IR). Infrared spectra (IR) were recorded on a Bruker Alpha II FTIR. […]
Then, biosensors were exposed to the analyte (peptide) in working buffer (ranging between 0– 10 µM BTP) for 300 s during the ‘association’ step. […] Binding affinity of each peptide was assessed through steady state analysis, where the response unit was plotted over peptide concentration. […]

[4] = Ex vivo serum stability assay, mouse serum; format: in vitro ADME; conditions: 25% mouse serum, over 12 h
Description: Mouse serum was obtained from 8–10-week-old athymic female mice. Mice were euthanized by CO2 asphyxiation with secondary decapitation to ensure death. An incision was made from the neck to the abdomen and the thorax was cut to expose the heart. An amount of 100 µL of heparin was then injected directly into the right atrium to prevent the blood from clotting. A cardiac puncture was performed by piercing the left ventricle with a 21G needle to remove 400–1000 µL of blood. Blood from five mice was collected and combined in a 10-mL centrifuge tube and centrifuged for 5 min at 500 rcf at 4 °C. The top layer containing the serum (opaque) was removed and stored at −20 °C.
To test for serum stability, a 10 mM stock of BTP-7-CPT and Scr-7-CPT was prepared in DMSO. Each compound (1.4 µL) was transferred into a microcentrifuge tube containing 200 µL of PBS with 25% mouse serum, or in PBS alone, and incubated at 37 °C (final concentration 70 μm). […] Samples containing the peptide were eluted with 10 µL of 70% acetonitrile in water containing 0.1% TFA into an LC-MS vial containing 20 µL of water with 0.1% TFA additive and analyzed via LC-MS. The amount of intact compound was determined through quantifying the ion count in the extracted ion chromatogram (EIC) using the MassHunter software. […]

[5] = parameters: method as in PMID 33997269; conditions: cited from earlier work

Row | Structure (SMILES) | half-life at 70 µM [1] [min] | soluble compound present in saline relative to in pure DMSO ([2]; 1.3 mm in saline (0.9% NaCl), 10% DMSO) | soluble compound present in saline relative to in pure DMSO ([2]; 100 µm in saline (0.9% NaCl), 1% DMSO) [%] | KD (dissociation constant) [3] | stability in mouse serum (detectable compound vs PBS) [4] | remaining at 24 h ([1]; after 24 h of incubation, read-out: peptide still intact) [%] | stability in mouse serum [5]
1 | CC(C)[C@@H](NC(=O)[C@@H](Cc1c[nH]cn1)NC(=O)CNC(=O)[C@@H](Cc1c[nH]c2ccccc12)NC(=O)[C@@H](CCCCN)NC(=O)[C@H](N)[C@H](C)O)C(=O)N[C@H](CC(N)=O)C(=O)N[C@H](CCCCN)C(=O)NCCCCCC(=O)N[C@@H](CS)C(N)=O [BTP-7-X-Cys] | 9.6 | – | – | – | – | – | –
2 | CC[C@@]1(O)C(=O)OCc2c1cc1n(c2=O)Cc2cc3ccccc3nc2-1 [CPT, camptothecin] | – | practically undetectable | 30 | did not exhibit any affinity | no decline in detectable compound over 12 h | – | –
3 | CC(C)[C@@H](NC(=O)[C@@H](Cc1c[nH]cn1)NC(=O)CNC(=O)[C@@H](Cc1c[nH]c2ccccc12)NC(=O)[C@@H](CCCCN)NC(=O)[C@H](N)[C@H](C)O)C(=O)N[C@H](CC(N)=O)C(=O)N[C@H](CCCCN)C(=O)NCCCCCC(N)=O [BTP-7-X] | 264 | – | – | – | – | ~40 | stable in mouse serum
